Assay results taken from patent USRE44962E1, “Genetically engineered plant cells and plants exhibiting resistance to glutamine synthetase inhibitors, DNA fragments and recombinants for use in the production of said cells and plants” (Bayer Cropscience N.V., priority 1986, dated 2014).

Tests used:
[1] = molecular target: PPT acetyl transferase (Streptomyces hygroscopicus, UniProt P16426); assay type: biochemical, S. hygroscopicus ATCC 21 705; conditions: S. hygroscopicus derivates; S. lividans carrying pBG20 or pBG16
[2] = tested on: E. coli W3110; assay: Growth of E. coli W3110 on M9 medium containing Bialaphos; assay type: cell-based; conditions: for resistance of pBG93/W3110 to Bialaphos: M9 medium
[3] = tested on: S. lividans; assay type: cell-based
[4] = tested on: Phytophtora infestans; assay type: in vivo; conditions: sfr potato plants sprayed at 8 l/ha once symptoms visible, read two weeks later
[5] = tested on: glutamine synthetase (GS); conditions: cited from earlier work

PPT acetyl transferase, sequence (P16426 whole entry): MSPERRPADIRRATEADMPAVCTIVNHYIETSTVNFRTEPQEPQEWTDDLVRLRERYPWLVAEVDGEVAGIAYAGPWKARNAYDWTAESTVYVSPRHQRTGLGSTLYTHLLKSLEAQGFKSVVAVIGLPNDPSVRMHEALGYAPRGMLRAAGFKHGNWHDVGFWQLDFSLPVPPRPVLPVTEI

CC(NC(=O)C(C)NC(=O)C(N)CCP(C)(=O)O)C(=O)O (stereo not shown) [Bialaphos]
acetylation by the PPT acetyl transferase activity [1]: does not acetylate
growth of W3110 host devoid of pBG93 ([2]; M9 medium containing 5 μg/ml Bialaphos): did not grow
resistance of pBG93/W3110 to Bialaphos ([2]; in the presence of IPTG (0.5 mM)): 50 μg/ml
resistance of pBG93/W3110 to Bialaphos ([2]; without IPTG): 5 μg/ml
growth of transformants containing pBG20 ([3]; S. lividans with pBG20, medium containing 500 μg/ml Bialaphos): not noticeably inhibited
Bialaphos concentration at which S. lividans growth is normally inhibited ([3]; untransformed S. lividans, minimal medium): 1 µg/mL
growth of the fungus on treated plants [4]: stopped

CC(=O)NC(CCP(C)(=O)O)C(=O)O (stereo not shown) [N-acetyl PPT]
inhibition of glutamine synthetase (GS) [5]: not an inhibitor

CP(=O)(O)CCC(N)C(=O)O (stereo not shown) [PPT, phosphinothricin]
acetylation by the PPT acetyl transferase activity [1]: could acetylate
inhibition of glutamine synthetase (GS) [5]: inhibits
